Series [1] relates to adult female Sprague-Dawley rats (ovariectomized). Put plainly: Locomotor activity after intra-accumbal Tat and IV cocaine (Example 4). Conditions: IV cocaine 3.0 mg/kg, saline intra-accumbal. In kind it is in vivo, rat. The protocol: Animals. […] Ovariectomy was also performed on all rats during the same surgical procedure.
Intra-accumbal TAT injection. A 2 treatment×2 drug, design was used. Thus, rats received bilateral injections of TAT or vehicle into the nucleus accumbens core and were subsequently administered an IV injection of cocaine (3.0 mg/kg/injection) or saline. Rats were administered intra-accumbal TAT or VEH injections according to methods previously described (Bansal et al., 2000). Briefly, 15 μg of Tat were injected bilaterally, using a Hamilton Syringe coated with Sigmacote, at the following coordinates: 1.8 mm anterior, ±1.6 mm lateral, and 7.0 mm ventral from bregma on the skull surface.
Locomotor activity. The activity monitors were 16-cm diameter, round open-field chambers (Flex-Field, San Diego Instruments, San Diego, Calif.) that detected free movement of animals by infrared photocell interruptions. This equipment used an infrared photocell grid (32 emitter/detector pairs) to measure total locomotor activity. […]
Drug Treatment. […] The dose of cocaine hydrochloride (3.0 mg/kg/day; Sigma, St. Louis, Mo.) was calculated on the weight of the salt and dissolved in saline for an injection volume of 1 ml/kg.

Series [2] has as its system ovariectomized female Sprague-Dawley rats. Put plainly: IV cocaine-induced locomotor activity after intra-accumbal Tat (1-72) (Example 14). The note with it: for mean total activity (±SEM): IV cocaine 3.0 mg/kg; for mean TIC (time in center): across days; for TIC, acute (Day 1): acute IV cocaine. In kind it is in vivo, rat. From the text:
Animals: Sixty-four adult ovariectomized female, Sprague-Dawley rats (70 days old) were obtained from Harlan Laboratories, Inc. (Indianapolis, Ind.). All rats were surgically implanted with an Intracath IV catheter (22 ga, Becton/Dickinson General Medical Corp., Grand Prarie, Tex.), which was used as a SC, dorsally implanted port for chronic IV injections. The subcutaneous implantable access port for rats was developed and described by Mactutus et al. (1994). Ovariectomized rats were used because estrogen is protective against the neurotoxic effects of Tat (Wallace et al., 2006). Serial ovariectomy and indwelling jugular catheter surgeries occurred for all rats during the same procedure. Upon arrival at the animal care facilities, rats were placed in quarantine for 7 days, and then transferred to the colony. Animals were pair housed throughout the experiment and the catheters were flushed daily with 0.2 ml of heparinized (2.5%) saline. Rodent food (Pro-Lab Rat, Mouse Hamster Chow #3000) and water were provided ad lib. The colony was maintained at 21±2° C., 50%±10% relative humidity and a 12L: 12D cycle with lights on at 0700 h (EST).
Locomotor activity: Habituation: Rats in the vehicle-saline (VEH-SAL), Tat-saline (Tat-SAL), vehicle-cocaine (VEH-COC), and Tat-cocaine (TAT-COC) groups were habituated to the locomotor activity chambers for two 60-min sessions, one/day. Twenty four hours after the second habituation session, all rats were injected with IV saline and placed into the activity chambers for 30-min to measure baseline activity. The activity monitors were square (40×40 cm) open-field chambers (Hamilton-Kinder Inc., Poway, Calif.) that detected free movement of animals by infrared photocell interruptions. This equipment used an infrared photocell grid (32 emitter/detector pairs) to measure locomotor activity. The chambers were converted into round (˜40 cm diameter) compartments by adding clear Plexiglas inserts; photocell emitter/detector pairs were tuned by the manufacturer to handle the extra perspex width. Circular chambers increase the sensitivity to detect locomotor activity (Harrod et al., 2006). All activity monitors were located in an isolated room.
Intra-accumbal Tat microinjection: All rats received intra-accumbal Tat or vehicle (VEH; physiological saline) injections approximately 24 hours after the saline baseline activity session and then received subsequent IV injections of cocaine (3.0 mg/kg/injection) or saline according to a 2×2, protein×drug, design. […] Tat was therefore administered to the core region of the N Acc to determine if the sensitization process was disrupted. Rats were administered intra-accumbal Tat or VEH injections according to methods previously described (Bansal et al., 2000; Aksenov et al., 2003). Briefly, rats were anesthetized using a mixture of ketamine hydrochloride and xylazine by intraperatoneal (IP) injection (7.5 mg ketamine/100 gb.wt. […].). 15 μg/l of Tat was injected bilaterally, using a silanized Hamilton Syringe at the following coordinates: 1.8 mm anterior, ±1.6 mm lateral, and 7.0 mm ventral from bregma on the skull surface, over an interval of one minute, with a one minute tissue recovery period before withdrawal.
IV cocaine-induced locomotor activity: Twenty-four hours after rats received bilateral intra-accumbal injections, IV cocaine or saline was administered. The animals were immediately placed into locomotor activity chambers following cocaine or saline. The animals' locomotor activity response to cocaine was assessed for 30 minutes on only two occasions: immediately after the first (Day 1) and last (Day 14) cocaine injections; however, rats were administered daily IV cocaine or saline injections in the home cage on days 2-13. […]

For the next series, the system named is human fetal neurons. Conditions: human fetal neuronal cultures, Turchan et al. 2001; cited from earlier work.
Another series concerns rat hippocampal neurons. Put plainly: Live/Dead (Calcein/Ethidium) viability of rat hippocampal neuronal cultures. Conditions: hydrochloride.

Each structure is given as a SMILES string. Entries after “also recorded” stand apart in the source; their conditions may differ. A value given as a limit tells only on which side of the number the result lay.

Regarding `COC(=O)[C@H]1[C@@H](OC(=O)c2ccccc2)C[C@@H]2CC[C@H]1N2C.Cl` [cocaine, Cocaine hydrochloride], the “centrally directed activity, cocaine” value in series [1] is recorded as “cocaine-induced increase in centrally directed activity”. Besides, the “total activity, repeated IV cocaine” value in series [2] (14 days) is recorded as “induced behavioral sensitization of total activity”. Moreover, in series [2] (10 minute), the “mean total activity (±SEM)” value is given as 2363.0 (±120.0); the “mean TIC (time in center)” value is listed as 116.6 (±12.4) seconds; the “TIC, acute (Day 1)” value was 72.1 (±15.0) seconds. In series [2] (20 minute), the “mean total activity (±SEM)” value is 1660.6 (±103.8); the “mean TIC (time in center)” value is on record as 152.3 (±20.1) seconds; the “TIC, acute (Day 1)” value is 100.2 (±19.0) seconds. In series [2] (30 minute), the “mean total activity (±SEM)” value is on record as 1494.01 (±66.5); the “mean TIC (time in center)” value is given as 160.3 (±19.6) seconds; the “TIC, acute (Day 1)” value is 108.9 (±24.4) seconds. The “total activity, acute cocaine (Day 1)” value in series [2] (rat, in vivo) is listed as “did not increase total activity”. The “locomotor composite incidence scores, VEH-COC vs VEH-SAL” value in series [2] (repeated (day 14) cocaine) was “significantly higher locomotor composite incidence scores”. The “cocaine level not neurotoxic (prior work)” value in the series with human fetal neurons is not above 16 µM. In the series with rat hippocampal neurons (50 nM Tat + 1.5-1.6 μM cocaine, 48 hours), the “neuronal cell death / Tat toxicity, Tat + cocaine vs Tat alone” value is “significantly higher in cultures subjected to both Tat and cocaine; also recorded: enhanced Tat toxicity”. In the series on rat hippocampal neurons (cocaine alone (0.1-10 μM; 1.5 μM)), the “toxicity / cell viability, cocaine alone” value is “No toxicity; also recorded: did not change cell viability”.

These data come from patent US20080306019A1, “Dopamine Receptor Agonists in the Treatment and Prevention of Hiv-Induced Dementia” (priority 2005, published 2008).
